Results: US20050049240A1, “Tetrahydroisochinolines, their production and the use thereof as analgesics” (Bayer HealthCare AG, priority 2001, published 2005)

Target: T1, human neurotensin-2 (NT-2) receptor (Homo sapiens, UniProt O95665)
T1 construct: expressed in transfected cells
Experiment: NT2 antagonism assay (intracellular calcium release in CHO or HEK 293 cells recombinantly expressing the receptor)
Type: cell-based
Settings: functional in vitro assay; block of agonist (e.g. SR48692)-dependent intracellular calcium release; recombinant human NT-2 receptor
Excerpt: The activation of the human neurotensin-2 (NT-2) receptor by an agonist, for example SR48692, 2-{[1-(7-chloroquinolin-4-yl)-5-(2,6-dimethoxyphenyl)pyrazol-3-yl]carbonylamino}tricyclo[3.3.3.1 ^3,7]decane-2-carboxylic acid, leads, via stimulation of phospholipase C, to the release of calcium ions from intracellular stores. Antagonists block the activation of the receptor by the agonist and therefore also the agonist-dependent stimulation of phospholipase C and the intracellular calcium release initiated thereby.
A functional in vitro assay may be carried out with stable cell lines, for example CHO or HEK 293, which express the human NT-2 receptor recombinantly. The activity of the receptor is determined via measurement of the intracellular calcium release coupled thereto (in microtiter plates having 96, 384 and 1536 wells/plate). The concentration-dependent action of the NT-2 ligands tested on the receptor activity may be reported as IC50.

T1 sequence (O95665 whole entry): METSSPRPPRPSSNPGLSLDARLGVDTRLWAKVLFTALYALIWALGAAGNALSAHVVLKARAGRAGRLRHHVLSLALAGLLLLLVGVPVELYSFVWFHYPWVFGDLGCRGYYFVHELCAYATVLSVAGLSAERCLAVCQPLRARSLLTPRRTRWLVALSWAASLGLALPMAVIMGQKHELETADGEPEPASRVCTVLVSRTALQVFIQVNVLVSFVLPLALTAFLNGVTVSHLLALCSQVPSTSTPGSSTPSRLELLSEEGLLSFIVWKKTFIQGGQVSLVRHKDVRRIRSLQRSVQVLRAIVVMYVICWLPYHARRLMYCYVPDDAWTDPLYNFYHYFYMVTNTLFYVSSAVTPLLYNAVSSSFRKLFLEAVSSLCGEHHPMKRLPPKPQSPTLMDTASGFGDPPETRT

IC50: < 200 nM
SMILES: NC(=O)COc1ccccc1C1C(C(=O)NCc2cccnc2)c2ccccc2C(=O)N1CCC1=CCCCC1 (single isomer, unassigned) [enantiomer B of example 1, 3,4-trans-3-[2-(2-Carbamoylmethoxy)phenyl]-2-[2-(1-cyclohexen-1-yl)ethyl]-1-oxo-N-(3-pyridinylmethyl)-1,2,3,4-tetrahydro-4-isoquinolinecarboxamide]
